From BindingDB's records for doi:10.1016/j.bmc.2013.11.045 (Northern Kentucky University, 2013)
pIC50: −log10 of the molar value.

Experiment: Inhibition of aromatase in human MCF7 cells

pIC50 | Compound
4.77 | O=C1c2ccccc2OCC1c1ccc(Oc2ccccc2)cc1 (configuration not stated)
4.36 | O=C1c2ccccc2OCC1c1cccnc1 (configuration not stated)
